# From publication PMC11061149, “Protein mimetic 2D FAST rescues alpha synuclein aggregation mediated early and post disease Parkinson’s phenotypes” (Nature Communications, 2024)
# “And” between values parts separate entries of the source, which are not always exact repeats. Equal entries are not always repeated.
# Tests used:
# αS aggregation = target: T1, αS aggregation (Homo sapiens, UniProt P37840); assay: SDS-PAGE gel shift assay of soluble and insoluble αS fractions; format: biochemical; conditions: for αS band intensity, Total: individual trials
# T1 construct: made in house; host or cells: E. coli BL21(DE3)
# Excerpt: The inhibition of αS aggregation by NS41 was also confirmed by TEM images, which show an abundance (Supplementary Fig. 3a) and low amount (Supplementary Fig. 3b) of αS fibers in the absence and presence of NS41, respectively. We used SDS-PAGE (Sodium dodecyl sulfate polyacrylamide gel electrophoresis) as a complementary assay to validate ThT results and to further characterize the antagonist activity of the monopyridyls against αS aggregation. We used a total of four monopyridyls with varying antagonist activity against αS aggregation for the SDS-PAGE assay. The solutions of αS (±monopyridyls) were centrifuged and the soluble and insoluble fractions were subjected to SDS-PAGE analysis as reported earlier (Fig. 2d, Supplementary Fig. 4a, see details in methods section). The band intensities of the gels in SDS-PAGE assay were quantified using ImageJ software. In the absence of ligands, ~12% of αS was found in the soluble fraction and the rest was found in the insoluble fraction (Fig. 2d, Supplementary Fig. 4a, b). In the presence of NS41 at molar ratios of 1:1 and 2:1 (NS41:αS), 48% and 73% of αS protein were found in the soluble fraction, respectively, and the rest of αS protein was found in the insoluble fraction (Fig. 2d, Supplementary Fig. 4a, b). […] The antagonist activity of the monopyridyls corroborated well from both ThT and the SDS-PAGE assays (Fig. 2a–d, Supplementary Fig. 4a, b). The higher the antagonist activity of monopyridyls against αS aggregation, the lower the ThT intensity and the higher the amount of αS remained in the soluble fraction (Fig. 2a–d, Supplementary Fig. 4a, b). […] It is important to note that NS41 contains a carboxyl (COOH) functional group side chain. […] We have also shown in that work that the foldamer binds to the N-terminus of αS because of its negatively charged COOH functional group interaction with the positively charged lysine residues of αS[24]. […] Additionally, we have also shown that the OPs with the COOH functional group are very effective inhibitors of aggregation of other amyloid proteins that contain lysine amino acid via the formation of salt bridges[30]–[34].
# An αS solution (100 µM) was prepared in PBS with or without ligands and shaken ([…], 37 °C) until the fluorescence plateaued, as observed using the ThT aggregation assay, indicative of the aggregation of αS as a control (four days for most experiments unless otherwise mentioned). The solutions were separated into soluble and insoluble fractions by centrifugation at 22,000 × g for 20 min. The fractions were diluted in 2×Laemmli protein sample loading buffer (Containing 2.1% SDS, Bio-rad, Hercules, CA), boiled at 95 °C for 5 min, and ran on a 12% Mini-PROTEAN precast protein gel (Bio-rad, Hercules, CA). The gel was visualized using ChemiDoc MP Imaging System (Bio-rad, Hercules, CA) and band intensity was quantified using Image Lab image acquisition and analysis software (Bio-rad, Hercules, CA). Densitometry values were averaged from three technical replicates and reported with the error bars representing their standard deviations.
# [1] = target: T2, α-Synuclein (αS) aggregation (Homo sapiens, UniProt P37840); assay: Thioflavin T (ThT) dye-based αS aggregation assay (de novo); format: biochemical; conditions: for ThT intensity relative to Synuclein alone (=1), Average / ThT intensity relative to Synuclein alone (=1), Trial 1-3: 100 µM αS, four days; for remaining activity at 100 µM: 96 h, pH 6.5, 100 μM αS, 1×PBS pH 6.5, four days, ligand:αS equimolar, read-out: ThT signal/intensity relative to αS alone (100%)
# T2 construct: made in house; host or cells: E. coli BL21(DE3)
# Procedure: We used a 2D FAST approach in OPs to identify potent antagonists of the aggregation of αS. In this approach, we start with a library of monopyridyls with different functional groups. The library of monopyridyls was synthesized using 2-chloro-6-methyl-3-nitropyridine as a common precursor, which was treated with primary alcohols with diverse side chain functionalities via a one-pot reaction (Fig. 1B, a and see Supplementary information for synthetic details). […] We selected the side chains containing hydrophobic, polar, positively charged, and negatively charged functional groups, which mimic the side chains of the amino acids (Fig. 1C). […] The monopyridyl library was screened against the aggregation of 100 μM αS at an equimolar ratio using Thioflavin T (ThT) dye-based aggregation assay (Fig. 1B, b). […] The chloro-dipyridyl was reacted with a library of primary amines/thiols to synthesize a library of dipyridyls (Fig. 1B, e) using a one-pot reaction. […] However, a few dipyridyls required column chromatography to separate them from the starting material side chains because of their very high boiling point (7 out of 21 dipyridyls required column, Supplementary Fig. 1). […]
# Aggregation Kinetics were measured according to a previously described protocol. […] The solutions were placed in a ThermoMixer (Eppendorf, Hamberg, Germany) at 37 °C with constant shaking at 1300 rpm (rpm). At different time points, 5 μL aliquots of each αS solution were added to 95 μL PBS containing 50 μM Thioflavin T (ThT) dye in a Costar black 96 well plate (Corning Inc., Kennebunk, ME). ThT fluorescence intensity was measured (λex = 450 nm and λem = 490 nm) on an Infinite M200PRO plate reader (Tecan, Männedorf, Switzerland), and plotted against time to give a sigmoidal curve typical of amyloid aggregation. For the single point ThT aggregation, 100 μM αS, in the absence and presence of ligands, was aggregated under the described conditions and the ThT fluorescence was reported at 96 h. The reported ThT intensity values are the average of each experiment conducted in triplicate, with the error bars representing the standard deviations or standard error of the mean (s.e.m.) as described in the main manuscript.
# αS fibers = target: T3, αS fibers (Homo sapiens, UniProt P37840); assay: Transmission electron microscopy (TEM) of αS solutions; format: biochemical; conditions: 100 µM αS aggregated for four days with ligand
# T3 construct: made in house; host or cells: E. coli BL21(DE3)
# Procedure: Transmission Electron Microscopy was used to visualize protein assemblies after aggregation experiments as previously described. Briefly, aliquots (5 μL) of αS solutions (with or without ligands) were applied on glow-discharged carbon-coated 300-mesh copper grids for 2 min and dried using Kimwipes (Kimberly-Clark, Irving, TX). The copper grids were negatively stained for 1 min with uranyl acetate (0.75%, w/v). The micrographs were taken on an FEI Tecnai G2 Biotwin TEM at 80 kV accelerating voltages.
# UA196 worms = assay: Motility assay of UA196 worms in the presence of dopamine and NS163; format: in vivo, C. elegans; conditions: for Motility of worms, UA196+Dopamine: individual trials
# Procedure: This motility assay was performed exactly as the previous assay with slight adjustment in the preparation of the plates for the treatment of UA196 worms. For this assay, the only difference is the 24 well plates were prepared with 2 mM dopamine (referred to as PLATE 5) and both 2 mM dopamine and 50 µM NS163 (referred to as PLATE 6). To prepare PLATE 5, the NGM media containing 75 µM FUDR was autoclaved and poured in NGM plates (2 mL total liquid). After 12 h, the NGM plates were seeded with 350 µL of OP50 (with OD = 0.5 at 600 nm) at 20 °C. After 12 h, 2 mM dopamine dissolved in M9 buffer (total volume = 300 µL) was spotted atop the NGM plates at 20 °C. To prepare PLATE 6, the NGM media containing 75 µM FUDR was autoclaved and poured in NGM plates (2 mL total liquid). After 12 h, the NGM plates were seeded with 350 µL of OP50 (with OD = 0.5 at 600 nm) at 20 °C. After 12 h, NS163 (50 µM, stock conc. = […] in DMSO) and dopamine (2 mM in M9 buffer) were dissolved in M9 buffer (total volume = 300 µL) and were spotted atop the NGM plates at 20 °C. The NGM plates treated with dopamine and NS163 and dopamine were placed in sterile laminar flow hood at 20 °C for 1 h. The NGM plates treated with dopamine and NS163 and dopamine were prepared and used within 24 h.
# There were six conditions for this experiment: (1) N2 worms, (2) N2 worms treated with 2 mM dopamine, (3) UA196 worms, (4) UA196 worms treated with 2 mM dopamine, (5) UA196 worms treated with 50 µM NS163, and (6) UA196 worms treated with 2 mM dopamine and 50 µM NS163. For each condition, four biological replicates were performed, and each biological replicate consisted of four technical replicates (four wells). For each condition, the data were expressed as mean and the error bars report the s.e.m. (n = 4 independent experiments and each n consisted of a total of four technical replicates).
structure (smiles),measurement,setting,value
Cc1ccc([N+](=O)[O-])c(OCC(=O)O)n1 [NS41],αS protein found in the soluble fraction,"αS aggregation; 100 µM αS, four days, NS41:αS 2:1",73%
same,αS protein found in the soluble fraction,"αS aggregation; 100 µM αS, four days, ligand:αS 1:1",48%
same,"αS band intensity, Total, Average","αS aggregation; sheet S4B, ligand 1 eq.",100
same,"αS band intensity, Total","αS aggregation; sheet S4B, ligand 1 eq.",95 and 102.5 (2×)
same,"αS band intensity, Total, Average","αS aggregation; sheet S4B, ligand 2 eq.",100
same,"αS band intensity, Total","αS aggregation; sheet S4B, ligand 2 eq.",96 and 102 (2×)
same,ThT signal relative to αS alone (100%),"[1]; 100 μM αS, 1×PBS pH 6.5, NS41/αS 2:1",17%
same,"ThT intensity relative to Synuclein alone (=1), Average",[1]; equimolar,0.2889
same,"ThT intensity relative to Synuclein alone (=1), Trial 1-3","[1]; equimolar, individual trials",0.2946 and 0.2756 and 0.2964
same,"ThT intensity relative to Synuclein alone (=1), Average",[1]; ligand 2 mole Eq.,0.162
same,"ThT intensity relative to Synuclein alone (=1), Trial 1-3","[1]; ligand 2 mole Eq., individual trials",0.1784 and 0.1666 and 0.1411
same,remaining activity at 100 µM,[1],29%
same,"αS fibers seen in TEM images, in words",αS fibers,low amount
Cc1ccc(NC(=O)c2ccc([N+](=O)[O-])c(NCC3CCCCC3)n2)c(OCC(=O)O)n1 [NS55],amount of αS in the insoluble fraction,"αS aggregation; 100 µM αS, four days, equimolar",26%
same,"αS band intensity, Total, Average",αS aggregation; sheet S5B,100
same,"αS band intensity, Total",αS aggregation; sheet S5B,95.6 and 105.4 and 99
same,"distribution of αS between soluble and insoluble fraction, in words",αS aggregation; substoichiometric ratio αS:ligand 1:0.5,a significant amount of αS protein was found in the insoluble form
same,"ThT fluorescence intensity, Average","[1]; 100 µM αS + equimolar ligand, aggregation profile Fig. 2h, time 0 hr",638.333
same,attenuation of the ThT signal of αS aggregation,"[1]; 100 μM αS, equimolar",96%
same,"ThT intensity relative to Synuclein alone (=1), Average",[1]; equimolar,0.04101
same,"ThT intensity relative to Synuclein alone (=1), Trial 1-3","[1]; equimolar, individual trials",0.05227 and 0.03887 and 0.03187
same,"ThT intensity relative to Synuclein alone (=1), Average",[1]; substoichiometric αS:ligand 1:0.5,0.7474
same,"ThT intensity relative to Synuclein alone (=1), Trial 1-3","[1]; substoichiometric αS:ligand 1:0.5, individual trials",0.775 and 0.733 and 0.7343
same,remaining activity at 100 µM,[1],4%
same,"ThT fluorescence intensity, Average","[1]; Fig. 2h profile, time 12 hr",699.667
same,"ThT fluorescence intensity, Average","[1]; Fig. 2h profile, time 24 hr",689.333
same,"ThT fluorescence intensity, Average","[1]; Fig. 2h profile, time 48 hr",722.667
same,"ThT fluorescence intensity, Average","[1]; Fig. 2h profile, time 72 hr",793
same,"ThT fluorescence intensity, Average","[1]; Fig. 2h profile, time 96 hr",631.333
same,"ThT fluorescence intensity, Average","[1]; Fig. 2h profile, time 144 hr",658.333
same,"ThT fluorescence intensity, Average","[1]; Fig. 2h profile, time 192 hr",603.333
same,"ThT fluorescence intensity, Average","[1]; Fig. 2h profile, time 300 hr",570.333
same,"Relative ThT intensity of αS aggregation, Average","[1]; sheet S5A, Synuclein alone about 1",0.04101
same,Relative ThT intensity of αS aggregation,"[1]; sheet S5A, Synuclein alone about 1, individual trials",0.05227 and 0.03887 and 0.03187
same,"αS fibers seen in TEM images, in words",αS fibers,no
NCCc1ccc(O)c(O)c1 [dopamine],"Motility of worms, UA196+Dopamine",UA196 worms; Day 4,146 and 123 and 134 and 157
same,"Motility of worms, UA196+Dopamine",UA196 worms; Day 5,129 and 128 and 126 and 106
same,"Motility of worms, UA196+Dopamine",UA196 worms; Day 6,99 and 108 and 117 and 122
same,"Motility of worms, UA196+Dopamine",UA196 worms; Day 7,108 and 102 and 112 and 99
same,"Motility of worms, UA196+Dopamine",UA196 worms; Day 8,108 and 103 and 97 and 100
same,"Motility of worms, UA196+Dopamine",UA196 worms; Day 9,93 and 88 and 92 and 89
same,"Motility of worms, UA196+Dopamine",UA196 worms; Day 10,87 and 88 and 92 and 89
same,"Motility of worms, UA196+Dopamine",UA196 worms; Day 11,75 and 62 and 83 and 87
same,"Motility of worms, UA196+Dopamine",UA196 worms; Day 12,72 and 83 and 69 and 65
same,"Motility of worms, UA196+Dopamine",UA196 worms; Day 13,51 and 78 and 67 and 62
same,"motility of UA196 worms treated with dopamine, in words","UA196 worms; dopamine 2 mM, day two and four",much higher motility
